Several values for one entry are separate records, joined by “and”; a condition that tells them apart may be missing. Identical values can stand only once.
Key:
[1] = molecular target: T1, binding of Id1 to immobilized MyoD (Homo sapiens, UniProt P41134); experiment: MyoD1/ID1 ELISA (specificity control); conditions: for inhibition of binding of Id1 to immobilized MyoD: result in words
T1 construct: purchased Proteintech Ag13359 (GST-ID1); Ag13186 (His-MyoD1)
T1 sequence (P41134 1-155): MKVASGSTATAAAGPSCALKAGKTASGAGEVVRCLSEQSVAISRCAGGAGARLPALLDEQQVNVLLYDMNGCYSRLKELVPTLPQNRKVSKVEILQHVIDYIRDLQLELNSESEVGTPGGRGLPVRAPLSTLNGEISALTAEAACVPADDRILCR
Method: ELISA-based protein-protein interaction assay. On a high-binding 96-well ELISA microplate (Greiner Cat# 655061), 100 ng of His-tagged recombinant human full-length BCL10 protein (Novus Cat# NBP1-99064) or in 100 µl PBS was allowed to adhere overnight at 4°C. The plate was blocked with 5% BSA in PBS for 1 hour at room temperature. After washing twice with PBS-T, a mixture of 100 ng of GST-tagged recombinant human full-length MALT1 protein (Novus Biologicals Cat# H00010892-P01) and compound that was preincubated for 1 hour in 100 μl PBS was added to the plate for 1 hour at room temperature. After washing three times with PBS-T, anti-MALT1 antibody (Cell Signaling Technology, Cat# 2494) in 5% BSA in PBS was added at 1:1000 dilution for 1 hour at room temperature. After washing three times with PBS-T, HRP-conjugated secondary antibody in 5% BSA in PBS was added at 1:5000 dilution for 1 hour at room temperature. After washing three times with PBS-T, 100 µl of 3,3’,5,5’-tetramethylbenzidine (TMB) substrate solution (Thermo Scientific, Cat# 34028) was added for up to 15 minutes, and 100 µl of 2 M sulfuric acid was added to stop the reaction. The plate was read at 450 nm using a spectrophotometer (Molecular Devices SpectraMax i3). The MyoD1/ID ELISA was performed as above except that 100 ng of recombinant human His-tagged MyoD1 (Proteintech, Cat# Ag13186) was plated overnight at 4°C prior to the addition of 100 ng of recombinant human GST-ID1 (Proteintech, Cat# Ag13359) preincubated to with compounds. The anti-GST antibody (clone 26H1, Cell signaling Technology, Cat #2624) was used to detect bound ID1. […]

OCI-Ly3 cells = experiment: cells; set-up: species or system TMD8 or OCI-Ly3; Inhibition of spontaneous IL-6 secretion from ABC-DLBCL cells, human IL-6 ELISA of supernatants; conditions: Homo sapiens, OCI-Ly3, 20 h; IL-6 secretion; read-out: IC50 (µM) IL-6 inhibition
Method: (§1) Cytokine ELISAs. Cytokines in cell culture supernatants were measured 20-24h after treatment with 0, 0.01, 0.03, 0.1, 0.3, 1, or 3 µM of compounds using the following ELISA kits according to the manufacturer’s instructions: Human IL-2 ELISA (BioLegend Cat# 431804), Human IL-6 ELISA (BioLegend Cat# 430504), and Human IL-10 ELISA (BioLegend Cat# 430604). TMD8 and OCI-Ly3 cells were treated with specific doses of compounds in serum-free media for 20 hours. Jurkat T cells were pretreated with specific doses of compounds for 8 hours in serum-free media, then stimulated with PMA/ionomycin for 16 hours prior to the collection of supernatants. Mouse splenocytes were isolated from spleens of C57/BL6 mice by passing spleens through a 70 micron filter followed by red blood cell lysis using ACK lysing buffer (Quality Biologics, Cat# 118-156-101). […] Supernatant was collected at 24 hours and mouse IL-2 levels were analyzed via ELISA (R&D Systems, Cat# DY402-05). IL-6 and IL-10 are NF-κB–induced cytokines that promote the proliferation and survival of malignant B cells through both autocrine and paracrine mechanisms ([44]), and are negative prognostic factors in ABC-DLBCL ([45], [46]). ABC-DLBCL cell lines spontaneously secrete substantial levels of IL-6 and IL-10, whereas GCB-DLBCL cell lines express only a negligible amount of these cytokines ([24]). […] The IC50 for inhibition of cytokine secretion by each compound in each cell line is reported in Supplemental Table 1.  Figure 4 M1i-124 and M1i-124d1 inhibit MALT1 protease and scaffolding functions, and MALT1-dependent cytokine secretion, in ABC-DLBCL cells. (A and B) Effect of 1 μM compound pretreatment on constitutive RelB cleavage (A) and IκB phosphorylation (B) within TMD8 cells. Representative Western blots are shown along with quantification (mean ± SEM; n = 2). (C) IL6 and IL10 mRNA levels in TMD8 cells treated with 1 μM M1i-124 or M1i-124d1 (mean ± SEM; n = 6). […] Statistical analyses were performed using 1-way ANOVA and Dunnett’s multiple-comparison test. **P < 0.01, ***P < 0.001, ****P < 0.0001.

TMD8 cells = experiment: cells; set-up: species or system TMD8 or OCI-Ly3; Inhibition of spontaneous IL-6 secretion from ABC-DLBCL cells, human IL-6 ELISA of supernatants; conditions: Homo sapiens, TMD8, 20 h; IL-6 secretion; read-out: IC50 (µM) IL-6 inhibition
Method: as §1

remaining activity at 0.39 µM ([1]; 0.39 µM, read-out: MyoD-Id Interaction (% of control)) [%]	remaining activity at 6.25 µM ([1]; 6.25 µM, read-out: MyoD-Id Interaction (% of control)) [%]	Compound	MyoD-Id Interaction (% of control) ([1]; 0.0975 µM)	MyoD-Id Interaction (% of control) ([1]; 0.39 µM)	MyoD-Id Interaction (% of control) ([1]; 1.56 µM)	MyoD-Id Interaction (% of control) ([1]; 6.25 µM)	MyoD-Id Interaction (% of control) ([1]; 12.5 µM)	MyoD-Id Interaction (% of control) ([1]; 25 µM)	MyoD-Id Interaction (% of control) ([1]; 50 µM)	MyoD-Id Interaction (% of control) ([1]; 100 µM)	inhibition of binding of Id1 to immobilized MyoD [1]	IC50 (OCI-Ly3 cells) [µM]	IC50 (TMD8 cells) [µM]	remaining activity at 12.5 µM ([1]; 12.5 µM, read-out: MyoD-Id Interaction (% of control)) [%]	remaining activity at 50 µM ([1]; 50 µM, read-out: MyoD-Id Interaction (% of control)) [%]
80.9	97.9	COc1ccc(CNS(=O)(=O)c2ccc(Cc3ccc(S(=O)(=O)NCc4ccc(OC)cc4)cc3)cc2)cc1 [M1i-124d1]	78.8369 % of control and 104.379 % of control and 92.0174 % of control	96.3277 % of control and 95.1904 % of control	85.8349 % of control and 109.633 % of control and 85.4375 % of control	108.475 % of control and 92.4516 % of control	119.401 % of control and 82.5424 % of control and 93.487 % of control	109.677 % of control and 97.6271 % of control and 64.0281 % of control	120.512 % of control and 93.4463 % of control and 89.2118 % of control	139.841 % of control and 108.927 % of control and 105.812 % of control	neither M1i-124 nor M1i-124d1 could inhibit	> 3	0.8		
		O=S(=O)(NCc1ccc2c(c1)OCO2)c1ccc(Cc2ccc(S(=O)(=O)NCc3ccc4c(c3)OCO4)cc2)cc1 [M1i-124]	75 % of control and 118.107 % of control and 86.1723 % of control	70.9459 % of control and 110.989 % of control and 93.988 % of control	102.244 % of control and 139.153 % of control and 113.828 % of control	126.689 % of control and 146.808 % of control and 132.264 % of control	149.548 % of control and 131.062 % of control	150.772 % of control and 122.599 % of control and 116.032 % of control	152.034 % of control and 140.013 % of control	153.861 % of control and 138.475 % of control and 133.2 % of control	neither M1i-124 nor M1i-124d1 could inhibit	0.8	1.3	145	158

Reference: publication PMC11996864, “A small-molecule inhibitor of BCL10-MALT1 interaction abrogates progression of diffuse large B cell lymphoma” (The Journal of Clinical Investigation, 2025)
